The subject of assay [1] is primary human pan T-cells. Briefly: Human IL-2 Assay for GCN2 Inhibition (IL-2 secretion from T cells in low amino acid condition). It is filed as cell-based. Conditions: IL-2 secretion from human T cells stimulated with anti-CD3/CD28 in low amino acid condition, ELISA; for EC50: read-out: IL2/T-cell EC50. An excerpt:
Tumor microenvironment is profoundly immuno-suppressive. This may be attributed to the depletion of amino acids (like arginine and tryptophan) which triggers the activation of GCN2 in immune cells, including T cell and myeloid cells. In T cells, activation of GCN2 leads to reduce effector functions of CD8 T cells and induction and/or maintenance of immuno-suppressive T-regs. Inhibition of that immuno-suppressive response by GCN2 inhibitors enables an anti-cancer immune response by activating effector T-cells. Herein we describe an in-vitro system we established using human T-cells stimulated in low amino acid condition in order to engage the GCN2 biology. The method described involves the modulation of IL-2 levels secreted by human T cells in responses to the GCN2 inhibitors disclosed herein.
Amino acid-free RPMI was reconstituted with all but one of the amino acids found in standard RMPI (e.g. Arginine, Tryptophan), 10% charcoal-stripped fetal bovine serum, 100 Units/mL penicillin and 0.1 mg/mL streptomycin. Primary human pan T-cells were isolated using Pan T Cell Isolation Kit, human (MACS Miltenyi biotech Cat # Order no. 130-096-535) from apheresis cones and 5×104 pan T-cells per well. The purified T cells are seeded in Nunc™ 96-Well Polystyrene Round Bottom Microwell Plates (the cells are rested in No TRP media in a 15 ml falcon tube in the incubator for 30-45 minutes while titrations for tryptophan and the GCN2 inhibitor compound are made) A plate matrix was developed to titrate both a GCN2 inhibitor and the amino acid of interest ranging from “No Amino Acid” condition, up to the concentration found in the regular RPMI media (20 μM for TRP and 950 μM for Arginine). The cells were incubated for 30 min at 37° C. with the GCN2 inhibitor and then stimulated with 5×104 anti-CD3/CD28 Dynabeads® per well. After 96 hours of incubation the IL-2 level in the supernatant were measured using ELISA (R&D systems Cat # DY202 (Human IL-2 DuoSet ELISA). Data were plotted in GraphPad Prism software and EC50 is calculated.
In general terms: An ELISA detects its analyte on a solid surface through an enzyme-linked reagent.

Assay [2] has as its target intracellular GCN2 (phosphorylation of the GCN2 substrate eIF2α) (Homo sapiens (Human), UniProt Q9P2K8). Description: GCN2 Cellular Inhibition Assay (AlphaScreen SureFire P-eIF2α Ser51, borrelidin-treated U2OS cells). It is filed as cell-based. The note with it: 10 μM borrelidin, 1 h, phosphorylated eIF2α Ser51, read-out: GCN2 Biomarker (IC50). Put shortly: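 U2OS cells adhered overnight, then given compound (top 40 μM, 4-fold serial dilutions) plus 10 μM borrelidin for 1 h at 37 °C. Lysates assayed for eIF2α phospho-Ser51 by AlphaScreen SureFire; % inhibition versus borrelidin-only wells.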
(Alpha assays give light when donor and acceptor beads are brought close together.)

In the next assay the target is GCN2 kinase (Homo sapiens (Human), UniProt Q9P2K8). Briefly: GCN2 Enzyme Inhibition Assay (Transcreener ADP2 fluorescence polarization). It is filed as biochemical. The note with it: 280 μM ATP, 200 μM (RS)7 peptide, 4 nM GCN2, 25° C. The method, boiled down:
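Transcreener ADP2 fluorescence polarization detection of ADP from 4 nM GCN2 with (RS)7 substrate in 25 mM Tris-HCl pH 7.5, 50 mM NaCl, 10 mM MgCl2, 1 mM DTT. Compound pre-incubated with enzyme 10 min at 25 °C; reaction started by ATP, run 1 h at 25 °C. IC50 and Ki(app) by tight-binding fit.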

Where two headings read alike, the source gives them in different places.

The IC50 is the midpoint of a concentration-inhibition curve.

Sequence of intracellular GCN2 (phosphorylation of the GCN2 substrate eIF2α) (Q9P2K8 whole entry): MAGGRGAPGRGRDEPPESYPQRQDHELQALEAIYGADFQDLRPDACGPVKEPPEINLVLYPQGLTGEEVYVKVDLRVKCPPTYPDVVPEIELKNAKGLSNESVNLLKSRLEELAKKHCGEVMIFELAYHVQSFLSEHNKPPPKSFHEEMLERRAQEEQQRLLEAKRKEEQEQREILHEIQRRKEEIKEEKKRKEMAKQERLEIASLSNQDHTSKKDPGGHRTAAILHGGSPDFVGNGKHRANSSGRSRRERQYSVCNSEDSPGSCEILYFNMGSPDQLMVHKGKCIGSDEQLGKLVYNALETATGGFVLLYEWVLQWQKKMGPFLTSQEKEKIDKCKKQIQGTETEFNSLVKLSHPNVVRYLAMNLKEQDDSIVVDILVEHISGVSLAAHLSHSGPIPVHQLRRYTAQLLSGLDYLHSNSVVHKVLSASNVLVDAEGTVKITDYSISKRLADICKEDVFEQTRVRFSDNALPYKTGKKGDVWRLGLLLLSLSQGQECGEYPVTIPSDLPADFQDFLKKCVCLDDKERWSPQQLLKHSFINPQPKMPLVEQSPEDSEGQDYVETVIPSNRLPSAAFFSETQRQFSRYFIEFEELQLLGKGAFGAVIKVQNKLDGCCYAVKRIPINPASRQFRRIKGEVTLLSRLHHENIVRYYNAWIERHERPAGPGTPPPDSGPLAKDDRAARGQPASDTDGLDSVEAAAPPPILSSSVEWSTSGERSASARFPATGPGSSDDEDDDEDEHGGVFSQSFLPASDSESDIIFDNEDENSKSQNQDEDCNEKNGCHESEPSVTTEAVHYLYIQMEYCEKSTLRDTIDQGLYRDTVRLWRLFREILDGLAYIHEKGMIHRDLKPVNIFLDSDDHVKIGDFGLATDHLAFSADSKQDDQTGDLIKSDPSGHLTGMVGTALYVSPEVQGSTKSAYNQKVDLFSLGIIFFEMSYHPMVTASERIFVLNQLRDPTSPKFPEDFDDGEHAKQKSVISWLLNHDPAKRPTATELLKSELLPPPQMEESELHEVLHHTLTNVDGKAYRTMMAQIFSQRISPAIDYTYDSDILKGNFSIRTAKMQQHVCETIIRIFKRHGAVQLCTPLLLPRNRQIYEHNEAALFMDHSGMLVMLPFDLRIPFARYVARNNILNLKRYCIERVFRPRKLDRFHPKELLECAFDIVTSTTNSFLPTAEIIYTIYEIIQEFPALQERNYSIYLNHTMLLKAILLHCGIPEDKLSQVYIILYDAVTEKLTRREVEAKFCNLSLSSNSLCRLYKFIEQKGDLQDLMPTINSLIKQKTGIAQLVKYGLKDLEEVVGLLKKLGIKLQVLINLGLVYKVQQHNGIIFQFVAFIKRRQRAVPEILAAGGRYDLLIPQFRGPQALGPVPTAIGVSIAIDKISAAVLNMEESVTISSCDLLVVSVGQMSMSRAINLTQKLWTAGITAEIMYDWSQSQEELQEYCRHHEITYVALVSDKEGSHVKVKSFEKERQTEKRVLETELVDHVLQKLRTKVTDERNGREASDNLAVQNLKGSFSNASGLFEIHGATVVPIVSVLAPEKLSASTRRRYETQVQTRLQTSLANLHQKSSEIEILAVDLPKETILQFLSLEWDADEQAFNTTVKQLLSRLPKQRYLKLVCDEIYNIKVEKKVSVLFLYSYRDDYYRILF
Sequence of GCN2 kinase (Q9P2K8 whole entry): as above

On to `Cc1[nH]ncc1[C@@H]1CN(c2nccc(-c3cnc4ccc(Cl)cn34)n2)C[C@H](C)O1` [I-179, (2S,6R)-4-(4-(6-chloroimidazo[1,2-a]pyridin-3-yl)pyrimidin-2-yl)-2-methyl-6-(5-methyl-1H-pyrazol-4-yl)morpholine], for which the EC50 in assay [1] (Homo sapiens, T-cell, 96 h) was in the range of 100 to 500 nM. The IC50 was less than 500 nM in assay [2] and less than 10 nM at GCN2 kinase.
On to `Cc1[nH]ncc1[C@@H]1CN(c2ccnc(-c3cnc4ccc(C(F)(F)F)cn34)n2)C[C@H](C)O1` [I-124, 3-{4-[(2S,6R)-2-Methyl-6-(3-methyl-1H-pyrazol-4-yl)-morpholin-4-yl]-pyrimidin-2-yl}-6-trifluoromethyl-imidazo[1,2-a]pyridine], for which the EC50 was 100 to 500 nM in assay [1] (Homo sapiens, T-cell, 96 h) and less than 100 nM in assay [1] (96 hours). The IC50 in assay [2] is less than 500 nM; at GCN2 kinase, less than 10 nM.
As to `C[C@@H]1CN(c2nccc(-c3cnc4ccc(Cl)cn34)n2)C[C@H](c2cn[nH]c2)O1` [I-248, 6-Chloro-3-{2-[(2R,6S)-2-methyl-6-(1H-pyrazol-4-yl)-morpholin-4-yl]-pyrimidin-4-yl}-imidazo[1,2-a]pyridine], the EC50 in assay [1] (Homo sapiens, T-cell, 96 h) lay in the range of 100 to 500 nM. Besides, the 50% inhibitory concentration (IC50) is less than 500 nM in assay [2] and less than 10 nM at GCN2 kinase.
For the molecule `C[C@@H]1C[C@H](N=S(C)(C)=O)CN(c2ccnc(-c3cnc4cc(F)c(Cl)cn34)n2)C1` [I-191, (((3 S, 5R)-1-(2-(6-chloro-7-fluoroimidazo[1,2-a]pyridin-3-yl)pyrimidin-4-yl)-5-methylpiperidin-3-yl)imino)dimethyl-λ6-sulfanone], in assay [1] (96 hours), the “IL2/T-cell EC50” value was “− (“−” for not active)”. Moreover, the IC50 in assay [2] is less than 500 nM; at GCN2 kinase, 10 to 100 nM.
For the molecule `C[C@@H]1C[C@H](c2cn[nH]c2)CN(c2nccc(-c3cnc4ccc(C5CC5)cn34)n2)C1` [I-249, 6-Cyclopropyl-3-{2-[(3R,5R)-3-methyl-5-(1H-pyrazol-4-yl)-piperidin-1-yl]-pyrimidin-4-yl}-imidazo[1,2-a]pyridine], the EC50 in assay [1] (Homo sapiens, T-cell, 96 h) fell in the range of 100 to 500 nM. Also, the IC50 in assay [2] was less than 500 nM; on GCN2 kinase, less than 10 nM.
As for `NC(=O)[C@@H]1CCCN(c2ncc(F)c(-c3cnc4ccc(C(F)(F)F)cn34)n2)C1` [I-223, (R)-1-(5-fluoro-4-(6-(trifluoromethyl)imidazo[1,2-a]pyridin-3-yl)pyrimidin-2-yl)piperidine-3-carboxamide], the EC50 in assay [1] (Homo sapiens, T-cell, 96 h) lay within 100 to 500 nM. The IC50 in assay [2] was less than 500 nM; against GCN2 kinase it was less than 10 nM.
Taken in the same sequence, the figures for `C[C@H]1C[C@@H](N=S(C)(C)=O)CN(c2ccnc(-c3cnc4ccc(Cl)cn34)n2)C1` (stereo in doubt) [I-128, (((3R,5S)-1-(2-(6-chloroimidazo[1,2-a]pyridin-3-yl)pyrimidin-4-yl)-5-methylpiperidin-3-yl)imino)dimethyl-λ6-sulfanone] were greater than 500 nM, less than 500 nM and 10 to 100 nM.
Regarding `C[C@@H]1C[C@H](c2cn[nH]c2)CN(c2nccc(-c3cnc4ccc(C(F)(F)F)cn34)n2)C1` [I-136, 3-(2-((3R,5R)-3-Methyl-5-(1H-pyrazol-4-yl)piperidin-1-yl)pyrimidin-4-yl)-6-(trifluoromethyl)imidazo[1,2-a]pyridine], the EC50 in assay [1] (Homo sapiens, T-cell, 96 h) is less than 100 nM; in assay [1] (96 hours), 100 to 500 nM. Moreover, the IC50 in assay [2] was less than 500 nM.
As for `C[C@@H]1CN(c2ccnc(-c3cnc4ccc(OC(F)(F)F)cn34)n2)C[C@H](c2cn[nH]c2)O1` [I-293, (2R,6 S)-2-methyl-6-(1H-pyrazol-4-yl)-4-(2-(6-(trifluoromethoxy)imidazo[1,2-a]pyridin-3-yl)pyrimidin-4-yl)morpholine], the EC50 in assay [1] (Homo sapiens, T-cell, 96 h) is less than 100 nM. The IC50 was less than 500 nM in assay [2] and less than 10 nM against GCN2 kinase.
Taken in the same sequence, the figures for `Cc1n[nH]nc1[C@@H]1C[C@H](C)CN(c2ccnc(-c3cnc4ccc(C(F)(F)F)cn34)n2)C1` [I-409, 3-(4-((3S,5R)-3-methyl-5-(5-methyl-2H-1,2,3-triazol-4-yl)piperidin-1-yl)pyrimidin-2-yl)-6-(trifluoromethyl)imidazo[1,2-a]pyridine] were greater than 500 nM, less than 500 nM and 10 to 100 nM.
Consider `Cc1n[nH]cc1C1CN(c2nccc(-c3cnc4ccc(Cl)cn34)n2)CC(C)O1` (stereo not shown) [I-160, 4-(4-(6-chloroimidazo[1,2-a]pyridin-3-yl)pyrimidin-2-yl)-2-methyl-6-(3-methyl-1H-pyrazol-4-yl)morpholine], for which, in assay [1] (Homo sapiens, T-cell, 96 h), the EC50 fell in the range of 100 to 500 nM. Moreover, on GCN2 kinase, the IC50 is less than 10 nM.
For the molecule `C[C@H]1C[C@@H](c2cn[nH]c2)CN(c2nccc(-c3cnc4ccc(C(F)(F)F)cn34)n2)C1` [I-137, 3-(2-((3S,5S)-3-Methyl-5-(1H-pyrazol-4-yl)piperidin-1-yl)pyrimidin-4-yl)-6-(trifluoromethyl)imidazo[1,2-a]pyridine], in assay [1] (Homo sapiens, T-cell, 96 h), the EC50 was 100 to 500 nM. For the same molecule, the half-maximal inhibitory concentration (IC50) in assay [2] is less than 500 nM.
In the case of `C[C@H]1CN(c2ccnc(-c3cnc4ccc(Cl)cn34)n2)[C@@H](C)[C@@H](c2cn[nH]c2)N1` [I-563, 6-chloro-3-(4-((2S,3R,5S)-2,5-dimethyl-3-(1H-pyrazol-4-yl)piperazin-1-yl)pyrimidin-2-yl)imidazo[1,2-a]pyridine], the EC50 in assay [1] (Homo sapiens, T-cell, 96 h) is 100 to 500 nM.
For `C[C@@H]1[C@H](C(N)=O)N(C2CC2)CCN1c1ccnc(-c2cnc3ccc(Cl)cn23)n1` [I-547, (2R,3R)-4-(2-(6-chloroimidazo[1,2-a]pyridin-3-yl)pyrimidin-4-yl)-1-cyclopropyl-3-methylpiperazine-2-carboxamide], the EC50 in assay [1] (Homo sapiens, T-cell, 96 h) fell in the range of 100 to 500 nM.
As to `C[C@@H]1CN(c2ccnc(-c3cnc4ccc(C(F)(F)F)cn34)n2)C[C@H](c2cn[nH]c2)O1` [I-564, (2R,6S)-2-methyl-6-(1H-pyrazol-4-yl)-4-(2-(6-(trifluoromethyl)imidazo[1,2-a]pyridin-3-yl)pyrimidin-4-yl)morpholine], the EC50 in assay [1] (Homo sapiens, T-cell, 96 h) is less than 100 nM.
Regarding `C[C@@H]1C[C@@H](c2cn[nH]c2)CN(c2ccnc(-c3cnc4ccc(C(F)(F)F)cn34)n2)C1` [I-567, 3-(4-((3R,5S)-3-methyl-5-(1H-pyrazol-4-yl)piperidin-1-yl)pyrimidin-2-yl)-6-(trifluoromethyl)imidazo[1,2-a]pyridine], the EC50 in assay [1] (Homo sapiens, T-cell, 96 h) is less than 100 nM.
Same read-out and setting: the figure for `C[C@@H]1[C@H](c2cn[nH]c2)N(C2COC2)CCN1c1ccnc(-c2cnc3ccc(C(F)(F)F)cn23)n1` [I-565, 3-(4-((2R,3 S)-2-methyl-4-(oxetan-3-yl)-3-(1H-pyrazol-4-yl)piperazin-1-yl)pyrimidin-2-yl)-6-(trifluoromethyl)imidazo[1,2-a]pyridine] is less than 100 nM.
Still for that read-out and setting: the figure for `C[C@@H]1C[C@@H](c2cn[nH]c2)CN(c2ccnc(-c3cnc4ccc(Cl)cn34)n2)C1` [I-559, 6-chloro-3-(4-((3R,5S)-3-methyl-5-(1H-pyrazol-4-yl)piperidin-1-yl)pyrimidin-2-yl)imidazo[1,2-a]pyridine] is less than 100 nM.
On to `C[C@H]1[C@H](c2cn[nH]c2)N(CC2(C)COC2)CCN1c1ccnc(-c2cnc3ccc(C(F)(F)F)cn23)n1` [I-482, 3-(4-((2 S,3 S)-2-methyl-4-((3-methyloxetan-3-yl)methyl)-3-(1H-pyrazol-4-yl)piperazin-1-yl)pyrimidin-2-yl)-6-(trifluoromethyl)imidazo[1,2-a]pyridine], for which, in assay [1] (Homo sapiens, T-cell, 96 h), the EC50 was greater than 500 nM. The 50% inhibitory concentration (IC50) against GCN2 kinase lay within 10 to 100 nM.
For `Cc1[nH]ncc1[C@@H]1CN(c2nccc(-c3cnc4ccc(C(F)(F)F)cn34)n2)C[C@H](C)O1` [I-116], in assay [1] (Homo sapiens, T-cell, 96 h), the EC50 was less than 100 nM. For the same molecule, the IC50 in assay [2] lay in the range of 500 to 5000 nM.
Take `C[C@@H]1C[C@@H](N=S(C)(C)=O)CN(c2ccnc(-c3cnc4ccc(C(F)F)cn34)n2)C1` [I-569, (((3R,5R)-1-(2-(6-(difluoromethyl)imidazo[1,2-a]pyridin-3-yl)pyrimidin-4-yl)-5-methylpiperidin-3-yl)imino)dimethyl-λ6-sulfanone]: the EC50 in assay [1] (Homo sapiens, T-cell, 96 h) fell in the range of 100 to 500 nM.
